Source: US20140228287A1, “1-[(3-CYANO-PYRIDIN-2-YL)METHYL]-3-METHYL-7-(2-BUTYN-1-YL)-8-[3-(R)-AMINO-PIPERIDIN-1-YL]-AXANTHINE FOR THE TREATMENT OF A METABOLIC DISORDER OF A PREDOMINANTLY CARNIVOROUS NON-HUMAN ANIMAL” (BOEHRINGER INGELHEIM VETMEDICA GMBH, priority 2010, published 2014)
Counter-ions that a name gives are not always drawn.

Tests used:
GLP-1 = experiment: OGTT in normal cats after 9 mg per cat: GLP-1 concentrations; type: in vivo; conditions: for GLP-1 concentration: 9 mg/cat oral, OGTT beginning 1 h after
Procedure: Cats were fasted overnight and then lightly tranquilized with tiletamine/zolazepam (2 mg per cat intravenously (Fort Dodge Animal Health, Ft. Dodge, Iowa, USA). Glucose was administered via gastric tube (2 g/kg body weight; 80% w/v) after a baseline blood sample had been obtained. […]
Glucose measurements were performed using a colorimetric glucose oxidase method (DCL, Oxford, Conn., USA). Plasma insulin was measured as described in Hoenig et al. (1989), J. Endocrinol., vol. 121, p. 249-251. The concentrations of active GLP-1 were measured with an ELISA kit from Linco (St. Charles, Mo., USA). All samples were tested in duplicate. […] The interassay coefficient of variation (CV) was 7.6%, and the intra-assay CV was 12.1%.
An OGTT like in Example 11 was performed in […] beginning 1 h after oral administration of 9 mg 1-[(3-cyano-pyridin-2-yl)methyl]-3-methyl-7-(2-butyn-1-yl)-8-[3-(R)-amino-piperidin-1-yl]-xanthine monohydrochloride or placebo (2 groups with 6 animals each; 3 male and 3 females per group).

blood glucose = experiment: Glucose monitoring in obese/non-obese cats, 7 days once daily dosing; type: in vivo, cat; conditions: 9 mg once daily 7 days; for Glucose, Max / Glucose, Mean / Glucose, Median / Glucose, Min: all 14 obese and non-obese cats, 168 hour period
Source text: The aim of this exploratory, randomized, placebo controlled crossover study was to investigate the effect of 1-[(3-cyano-pyridin-2-yl)methyl]-3-methyl-7-(2-butyn-1-yl)-8-[3-(R)-amino-piperidin-1-yl]-xanthine monohydrochloride on DPP IV activity and on glucose concentrations in obese and non-obese cats after repeated oral administration over seven days.
Fourteen clinically healthy male and female (8 obese and 6 non-obese) purpose-bred cats were used in this study. The animals were randomly allocated to two groups of cats, obese and non-obese, and treated in a cross-over design with 9 mg 1-[(3-cyano-pyridin-2-yl)methyl]-3-methyl-7-(2-butyn-1-yl)-8-[3-(R)-amino-piperidin-1-yl]-xanthine monohydrochloride or placebo, once daily for 7 days, with a following wash-out period of 21 days.
Cats were fed once daily 40 min after administration of the compound or the placebo, respectively.
To allow a Continuous glucose monitoring (CGM) a Continuous glucose monitoring system (CGMS) was applied. To this end, on day 1 a Medtronic continuous glucose monitoring sensor (Guardian system; Medtronic Minimed, Northridge, Calif., USA) was placed interstitially. The skin was shaved, and then wiped several times with 70% alcohol. The sensor was inserted into the skin and secured to the skin with a cover provided by Medtronics, and Elasticon. The CGMS was calibrated 2 times daily using a glucometer. When a sensor became non-functional, a new sensor was placed. The sensors were placed between the shoulder blades. Data were recalled via a wireless system.
Also blood samples for were taken before and 6, 12, 24, 64, and 168 hours (3 ml each) after oral administration of the test compound or the placebo. Blood samples for the calibration of the CGMS were taken at least twice daily from day 1 to day 7 approximately twelve hours apart (0.2 ml of blood each time). Glucose measurements were performed using a glucometer (Presto WaveSense) and also a colorimetric glucose oxidase method (Genzyme Diagnostics PEI Incorporated; Charlottetown, Canada), reference method, at appropriate time points (0.2 ml each time; see results section). Interstitial glucose concentrations were followed with the continuous glucose monitoring system. After 7 days, the CGMS was removed.
The measured mean, median, min, and max glucose values for all 14 cats during a 168 hour testing period using the three glucose measurement methods are shown in Table 9.

[1] = Multiple dose study (14 days) in cats: adverse events; type: in vivo, cat; conditions: 1, 3, 9 mg/animal once daily oral for 14 days
Procedure: The aim of this study was to investigate the PK/PD effects of 1-[(3-cyano-pyridin-2-yl)methyl]-3-methyl-7-(2-butyn-1-yl)-8-[3-(R)-amino-piperidin-1-yl]-xanthine in cats following repeated oral administration of 0, 1, 3 and 9 mg/animal over 14 days corresponding to a dose of 0, 0.25, 0.75 and 2.25 mg/kg body weight for a cat weighing 4 kg. (Dosages were based on the free base: 1 mg 1-[(3-cyano-pyridin-2-yl)methyl]-3-methyl-7-(2-butyn-1-yl)-8-[3-(R)-amino-piperidin-1-yl]-xanthine monohydrochloride corresponds to 0.923 mg 1-[(3-cyano-pyridin-2-yl)methyl]-3-methyl-7-(2-butyn-1-yl)-8-[3-(R)-amino-piperidin-1-yl]-xanthine free base).
For this purpose, twelve clinically healthy male adult domestic short hair cats with a body weight range of 3.5-4.8 kg were used. The animals were randomly allocated to 4 groups, 3 animals per group. All animals were treated once daily orally for 14 days (i.e. on days 0-13). The test article was administered via capsules at doses of 1 (group II), 3 (group III) or 9 (group IV) mg of the monohydrochloride compound per animal; group I received placebo serving as controls. Blood samples for PK and PD (DPP IV activity) investigations were drawn at 0 h (i.e. prior to the 1st treatment), 0.5, 1, 2, 4, 8, 12 and 24 h after the 1st treatment as well as 24 h after the 3rd, 5th, 7th, 9th, 11th and 13th treatment and 0.5, 1, 2, 4, 8, 12 and 24 h after the 14th treatment.

[2] = Glucose oxidase (reference method)

CC#CCn1c(N2CCC[C@@H](N)C2)nc2c1c(=O)n(Cc1ncccc1C#N)c(=O)n2C [1-[(3-cyano-pyridin-2-yl)methyl]-3-methyl-7-(2-butyn-1-yl)-8-[3-(R)-amino-piperidin-1-yl]-xanthine monohydrochloride]
GLP-1 increase compared to Placebo (GLP-1; 9 mg per cat oral, OGTT in normal cats): significantly higher compared to Placebo
GLP-1 concentration (GLP-1; 60 min after drug administration): 3.70 pmol/L
GLP-1 concentration (GLP-1; 65 min after drug administration): 3.92 pmol/L
GLP-1 concentration (GLP-1; 70 min after drug administration): 4.54 pmol/L
GLP-1 concentration (GLP-1; 75 min after drug administration): 7.28 pmol/L
GLP-1 concentration (GLP-1; 90 min after drug administration): 16.31 pmol/L
GLP-1 concentration (GLP-1; 120 min after drug administration): 26.93 pmol/L
GLP-1 concentration (GLP-1; 180 min after drug administration): 23.25 pmol/L
GLP-1 concentration (GLP-1; 240 min after drug administration): 14.45 pmol/L
GLP-1 concentration (GLP-1; 300 min after drug administration): 9.60 pmol/L
GLP-1 concentration (GLP-1; 360 min after drug administration): 6.04 pmol/L
Glucose, Max (blood glucose; CGM): 126 mg/dL
Glucose, Mean (blood glucose; CGM): 94 mg/dL
Glucose, Median (blood glucose; CGM): 93 mg/dL
Glucose, Min (blood glucose; CGM): 66 mg/dL
Glucose, Max (blood glucose; Glucometer): 131 mg/dL
Glucose, Mean (blood glucose; Glucometer): 103 mg/dL
Glucose, Median (blood glucose; Glucometer): 101 mg/dL
Glucose, Min (blood glucose; Glucometer): 79 mg/dL
Glucose, Max (blood glucose; [2]): 142 mg/dL
Glucose, Mean (blood glucose; [2]): 93 mg/dL
Glucose, Median (blood glucose; [2]): 89 mg/dL
Glucose, Min (blood glucose; [2]): 71 mg/dL
daily blood glucose concentrations, treated vs placebo treated (blood glucose; obese or non-obese cats): no difference in daily blood glucose concentrations
adverse events [1]: No adverse events specifically attributable to the test article were noted
